# Earlier results as cited in patent publication US7582314B2, “Compositions and methods for the management of hyperproliferative dermatological conditions” (Sami Labs Ltd., priority 2003, dated 2009).
# Read-outs that look alike come from different tables or passages of the source.
# Experiments:
# [1] = system: damage to the skin induced by UV radiation; conditions: topical; human subjects
# plaque psoriasis = conditions: oral supplementation; psoriasis patients
# [2] = system: damage to the skin induced by UV radiation; conditions: topical; experimental animals
smiles,measurement,setting,value
C[Se]CC[C@H](N)C(=O)O [selenomethionine],degree of damage to the skin induced by UV radiation,[1],reduces
same,efficacy as adjuvant treatment in plaque psoriasis,plaque psoriasis,ineffective
same,degree of damage to the skin induced by UV radiation,[2],reduces
